According to patent publication US8796277B2, “Radioprotector compounds and related methods” (Peter MacCallum Cancer Institute, priority 2006, dated 2014):

Key:
[1] = system: transformed human keratinocyte cell line (FEP 1811); assay: Clonogenic survival cell culture assay for cytotoxicity (un-irradiated cells); assay type: cell-based; settings: un-irradiated FEP 1811 cells, one hour drug incubation, colonies counted after eight days; concentrations in FIG. 1 plotted in μM; read-out: cytotoxicity C50 (drug concentration corresponding to 50% survival)
Description: (§1) The assay involves the transformed human keratinocyte cell line (FEP 1811) (as described by Smith et al (6)) and evaluation of cytotoxicity and radioprotective activity using the clonogenic survival endpoint. The details are described in detail in Martin et al (4) (the disclosure of which is included herein in its entirety by way of reference), but briefly, mid-log phase monolayer cultures are incubated with various concentrations of the test drugs for one hour, after which the monolayers are washed and dispersed into single cell suspensions using pronase, and finally appropriate numbers of cells are dispensed into Petri dishes. Colonies are counted after eight days incubation. For radioprotection studies, the monolayer cultures are irradiated in a ^137Cs-Gamma-cell radiation source to a dose of 12 Gy. The irradiation (with a dose rate of 0.6 Gy per minute) is started 30 minutes after addition of the test drug. After completion of irradiation, incubation of cultures is continued until the total time of exposure to the drug reaches 60 minutes. Cultures are then washed and plated for clonogenic survival as described for the cytotoxicity experiments. The experiments include untreated cultures as controls, and the plating efficiency of these controls is used to adjust that of the test cultures, in order to calculate the overall clonogenic survival.
In general each experiment involves investigation of 4 or 5 different test concentrations of the drug under study, with and without irradiation. The data analysis for the experiments with un-irradiated cells generates curves showing the relationship between cell survival and drug concentration (FIG. 1), from which the drug concentration corresponding to 50% survival (C50) is determined.

[2] = system: transformed human keratinocyte cell line (FEP 1811); assay: Clonogenic survival cell culture assay for radioprotective activity (cells irradiated to 12 Gy); assay type: cell-based; settings: FEP 1811 cells, 12 Gy 137Cs gamma at 0.6 Gy per minute, irradiation started 30 minutes after drug addition, total drug exposure 60 minutes
Description: as §1
However, for some of the compounds, the survival decreases at higher drug concentrations, due to cytotoxicity. Non-linear regression analysis of the data, for example that in FIG. 2, generates a parameter denoted the protection factor (PF), which is the ratio of the maximum survival to the radiation-only (zero drug) survival. PF is therefore a measure of radioprotective efficacy. The C50 and PF values, and for a number of the compounds are collected in Table 1, with standard deviations (SD) for those compounds that have been studied in replicate experiments.

Row | SMILES | IC50 [1] | radioprotection PF (protection factor: ratio of the maximum survival to the radiation-only (zero drug) survival) [2]
1 | CN1CCN(c2ccc3[nH]c(-c4ccc5[nH]c(-c6ccc(N(C)C)cc6F)nc5c4)nc3c2)CC1 [Example 1, 4-dimethylamino-2-fluoro-1-(5′-(5″-(4′″-methylpiperazin-1′″-yl)benzimidazol-2″-yl)benzimidazol-2′-yl)benzene] | 28 µM | 9.3
2 | CN1CCN(c2ccc3[nH]c(-c4ccc5[nH]c(-c6c(F)cc(N(C)C)cc6F)nc5c4)nc3c2)CC1 [Example 2, 2,6-difluoro-4-dimethylamino-1-(5′-(5″-(4′″-methylpiperazin-1′″-yl)benzimidazol-2″-yl)benzimidazol-2′-yl)benzene] | 25 µM | 6.4
3 | CNc1ccc(-c2nc3cc(-c4nc5cc(N6CCN(C)CC6)ccc5[nH]4)ccc3[nH]2)c(F)c1 [Example 3, 2-fluoro-4-methylamino-1-(5′-(5″-(4′″-methylpiperazin-1′″-yl)benzimidazol-2″-yl)benzimidazol-2′-yl)benzene] | 218 µM | 7
4 | CN1CCN(c2ccc3[nH]c(-c4ccc5[nH]c(-c6ccc(N(C)C)cc6Cl)nc5c4)nc3c2)CC1 [Example 4, 2-chloro-4-dimethylamino-1-(5′-(5″-(4′″-methylpiperazin-1′″-yl)benzimidazol-2″-yl)benzimidazol-2′-yl)benzene] | 18 µM | 5.5
5 | COc1ccc(-c2nc3cc(-c4nc5cc(N6CCN(C)CC6)ccc5[nH]4)ccc3[nH]2)cc1F [Example 5, 3-fluoro-4-methoxy-1-(5′-(5″-(4′″-methylpiperazin-1′″-yl)benzimidazol-2″-yl)benzimidazol-2′-yl)benzene] | 91 µM | 2.1
6 | CN1CCN(c2ccc3[nH]c(-c4ccc5[nH]c(-c6ccc(F)cc6)nc5c4)nc3c2)CC1 [Example 6, 4-fluoro-1-{5′-[5″-(4′″-methylpiperazin-1′″-yl)benzimidazol-2″-yl]benzimidazol-2′-yl}benzene] | 34 µM | 4.5
7 | CN1CCN(c2ccc3[nH]c(-c4ccc5[nH]c(-c6ccc(N(C)C)c(F)c6)nc5c4)nc3c2)CC1 [Example 7, 4-dimethylamino-3-fluoro-1-(5′-(5″-(4′″-methylpiperazin-1′″-yl)benzimidazol-2″-yl)benzimidazol-2′-yl)benzene] | 26 µM | 3.2
8 | CNc1ccc(F)c(-c2nc3cc(-c4nc5cc(N6CCN(C)CC6)ccc5[nH]4)ccc3[nH]2)c1 [Example 8, 2-fluoro-5-methylamino-1-(5′-(5″-(4′″-methylpiperazin-1′″-yl)benzimidazol-2″-yl)benzimidazol-2′-yl)benzene] | 151 µM | 15.5
9 | CN1CCN(c2ccc3[nH]c(-c4ccc5[nH]c(-c6cc(N(C)C)ccc6F)nc5c4)nc3c2)CC1 [Example 9, 5-dimethylamino-2-fluoro-1-(5′-(5″-(4′″-methylpiperazin-1′″-yl)benzimidazol-2″-yl)benzimidazol-2′-yl)benzene] | 21.9 µM | 16.7
10 | CNc1cc(F)c(-c2nc3cc(-c4nc5cc(N6CCN(C)CC6)ccc5[nH]4)ccc3[nH]2)cc1F [Example 10, 2,5-difluoro-4-methylamino-1-(5′-(5″-(4′″-methylpiperazin-1′″-yl)benzimidazol-2″-yl)benzimidazol-2′-yl)benzene] | 51.4 µM | 9.62
11 | Cc1cc(N(C)C)ccc1-c1nc2ccc(-c3nc4ccc(N5CCN(C)CC5)cc4[nH]3)cc2[nH]1 [methylproamine, reference compound] | 19.3 µM | 10
